{"source": "patent US11236102B2", "about": "“Oxabicycloheptane prodrugs” (Lixte Biotechnology, Inc., priority 2015, dated 2022)", "assay": "Pharmacokinetic study of 151 (iv, oral) in SD rats: 151 and 100 in plasma", "type": "in vivo", "method": "The absolute bioavailability was evaluated.\nTo each sample, 160 μL of acetonitrile were added.\nThe mass spectrometer was operated in the positive mode.\nQuantification was achieved by the external standard method.\nCalibration Curve for Plasma Samples\nLB100 concentrations of the LB151 plasma samples were also measured and pharmacokinetic parameters were calculated.", "key": {"[1]": {"details": "151 IV 1.0 mg/kg, SD rats, individual rats, 1 mg/kg"}}, "note": "Several values for one entry are separate records, joined by “and”; a condition that tells them apart may be missing. Identical values can stand only once. Like-named read-outs stand apart in the source and are kept apart here."}
{"smiles": "COC(=O)C1C2CCC(O2)C1C(=O)N1CCN(C)CC1", "note": "(stereo not shown) [Compound 151]", "values": [{"measurement": "151 plasma concentration", "setting": "151 IV 1.0 mg/kg, SD rats, 0.083 h, individual rats, 1 mg/kg", "value": 1301, "unit": "ng/mL"}, {"measurement": "151 plasma concentration", "setting": "151 IV 1.0 mg/kg, SD rats, 0.250 h, individual rats, 1 mg/kg", "value": 949, "unit": "ng/mL"}, {"measurement": "151 plasma concentration", "setting": "151 IV 1.0 mg/kg, SD rats, 0.50 h, individual rats, 1 mg/kg", "value": 607, "unit": "ng/mL"}, {"measurement": "151 plasma concentration", "setting": "151 IV 1.0 mg/kg, SD rats, 1.0 h, individual rats, 1 mg/kg", "value": 314, "unit": "ng/mL"}, {"measurement": "151 plasma concentration", "setting": "151 IV 1.0 mg/kg, SD rats, 2.0 h, individual rats, 1 mg/kg", "value": 103, "unit": "ng/mL"}, {"measurement": "151 plasma concentration", "setting": "151 IV 1.0 mg/kg, SD rats, 3.0 h, individual rats, 1 mg/kg", "value": 28.1, "unit": "ng/mL"}, {"measurement": "151 plasma concentration", "setting": "151 IV 1.0 mg/kg, SD rats, 5.0 h, individual rats, 1 mg/kg", "value": "9.75 ng/mL and 3.63 ng/mL"}, {"measurement": "151 plasma concentration", "setting": "151 IV 1.0 mg/kg, SD rats, 7.0 h, individual rats, 1 mg/kg", "value": "12.2 ng/mL and 1.83 ng/mL"}, {"measurement": "151 plasma concentration", "setting": "151 IV 1.0 mg/kg, SD rats, 9.0 h, individual rats, 1 mg/kg", "value": "BLQ"}, {"measurement": "151 plasma concentration", "setting": "151 IV 1.0 mg/kg, SD rats, 24 h, individual rats", "value": "BLQ"}, {"measurement": "CL of 151", "setting": "[1]", "value": 15.9, "unit": "mL/min/kg"}, {"measurement": "Vss of 151", "setting": "[1]", "value": 0.775, "unit": "L/kg"}, {"measurement": "F of 151", "setting": "151 PO 10 mg/kg vs IV 1.0 mg/kg, SD rats, mean, based on AUC0-∞", "value": 54.6, "unit": "%"}, {"measurement": "151 plasma concentration", "setting": "151 PO 10 mg/kg, SD rats, 0.25 h, individual rats, 10 mg/kg", "value": "2029 ng/mL and 2731 ng/mL"}, {"measurement": "151 plasma concentration", "setting": "151 PO 10 mg/kg, SD rats, 0.50 h, individual rats, 10 mg/kg", "value": "3934 ng/mL and 3343 ng/mL"}, {"measurement": "151 plasma concentration", "setting": "151 PO 10 mg/kg, SD rats, 1.0 h, individual rats, 10 mg/kg", "value": "2581 ng/mL and 2538 ng/mL"}, {"measurement": "151 plasma concentration", "setting": "151 PO 10 mg/kg, SD rats, 2.0 h, individual rats, 10 mg/kg", "value": "1237 ng/mL and 1582 ng/mL"}, {"measurement": "151 plasma concentration", "setting": "151 PO 10 mg/kg, SD rats, 3.0 h, individual rats, 10 mg/kg", "value": "660 ng/mL and 794 ng/mL"}, {"measurement": "151 plasma concentration", "setting": "151 PO 10 mg/kg, SD rats, 5.0 h, individual rats, 10 mg/kg", "value": "99.4 ng/mL and 192 ng/mL"}, {"measurement": "151 plasma concentration", "setting": "151 PO 10 mg/kg, SD rats, 7.0 h, individual rats, 10 mg/kg", "value": "42.6 ng/mL and 20.7 ng/mL and 68.0 ng/mL"}, {"measurement": "151 plasma concentration", "setting": "151 PO 10 mg/kg, SD rats, 9.0 h, individual rats, 10 mg/kg", "value": "38.2 ng/mL and 66.1 ng/mL"}, {"measurement": "151 plasma concentration", "setting": "151 PO 10 mg/kg, SD rats, 24 h, individual rats", "value": "BLQ"}, {"measurement": "time of peak plasma concentration", "setting": "151 oral 10 mg/kg, SD rats (n=3)", "value": 0.5, "unit": "h"}, {"measurement": "concentration at 0.083 h", "setting": "male, Sprague-Dawley, rat, in vivo, iv, 1 mg/kg, 151 IV 1.0 mg/kg, SD rats, 0.083 h, individual rats", "value": 1680, "unit": "ng/mL"}, {"measurement": "concentration at 0.083 h", "setting": "male, Sprague-Dawley, rat, in vivo, iv, 1 mg/kg, 151 IV 1.0 mg/kg, SD rats, 0.083 h, mean", "value": 1490, "unit": "ng/mL"}, {"measurement": "concentration at 0.25 h", "setting": "male, Sprague-Dawley, rat, in vivo, iv, 1 mg/kg, 151 IV 1.0 mg/kg, SD rats, 0.250 h, individual rats", "value": 1160, "unit": "ng/mL"}, {"measurement": "concentration at 0.25 h", "setting": "male, Sprague-Dawley, rat, in vivo, iv, 1 mg/kg, 151 IV 1.0 mg/kg, SD rats, 0.250 h, mean", "value": 1060, "unit": "ng/mL"}, {"measurement": "concentration at 0.5 h", "setting": "male, Sprague-Dawley, rat, in vivo, iv, 1 mg/kg, 151 IV 1.0 mg/kg, SD rats, 0.50 h, individual rats", "value": 760, "unit": "ng/mL"}, {"measurement": "concentration at 0.5 h", "setting": "male, Sprague-Dawley, rat, in vivo, iv, 1 mg/kg, 151 IV 1.0 mg/kg, SD rats, 0.50 h, mean", "value": 683, "unit": "ng/mL"}, {"measurement": "concentration at 1 h", "setting": "male, Sprague-Dawley, rat, in vivo, iv, 1 mg/kg, 151 IV 1.0 mg/kg, SD rats, 1.0 h, individual rats", "value": 381, "unit": "ng/mL"}, {"measurement": "concentration at 1 h", "setting": "male, Sprague-Dawley, rat, in vivo, iv, 1 mg/kg, 151 IV 1.0 mg/kg, SD rats, 1.0 h, mean", "value": 348, "unit": "ng/mL"}, {"measurement": "concentration at 2 h", "setting": "male, Sprague-Dawley, rat, in vivo, iv, 1 mg/kg, 151 IV 1.0 mg/kg, SD rats, 2.0 h, individual rats", "value": 95.8, "unit": "ng/mL"}, {"measurement": "concentration at 2 h", "setting": "male, Sprague-Dawley, rat, in vivo, iv, 1 mg/kg, 151 IV 1.0 mg/kg, SD rats, 2.0 h, mean", "value": 99.6, "unit": "ng/mL"}, {"measurement": "concentration at 3 h", "setting": "male, Sprague-Dawley, rat, in vivo, iv, 1 mg/kg, 151 IV 1.0 mg/kg, SD rats, 3.0 h, individual rats", "value": 39.6, "unit": "ng/mL"}, {"measurement": "concentration at 3 h", "setting": "male, Sprague-Dawley, rat, in vivo, iv, 1 mg/kg, 151 IV 1.0 mg/kg, SD rats, 3.0 h, mean", "value": 33.8, "unit": "ng/mL"}, {"measurement": "concentration at 5 h", "setting": "male, Sprague-Dawley, rat, in vivo, iv, 1 mg/kg, 151 IV 1.0 mg/kg, SD rats, 5.0 h, mean", "value": 6.69, "unit": "ng/mL"}, {"measurement": "concentration at 7 h", "setting": "male, Sprague-Dawley, rat, in vivo, iv, 1 mg/kg, 151 IV 1.0 mg/kg, SD rats, 7.0 h, mean", "value": 7.02, "unit": "ng/mL"}, {"measurement": "concentration at 9 h", "setting": "male, Sprague-Dawley, rat, in vivo, iv, 1 mg/kg, 151 IV 1.0 mg/kg, SD rats, 9.0 h, individual rats", "value": 2.01, "unit": "ng/mL"}, {"measurement": "concentration at 9 h", "setting": "male, Sprague-Dawley, rat, in vivo, iv, 1 mg/kg, 151 IV 1.0 mg/kg, SD rats, 9.0 h, mean", "value": 1, "unit": "ng/mL"}, {"measurement": "clearance", "setting": "male, Sprague-Dawley, rat, in vivo, iv, 1 mg/kg, 151 IV 1.0 mg/kg, SD rats, individual rats, read-out: CL of 151 (converted)", "value": 12.7, "unit": "mL/min/kg"}, {"measurement": "Vd", "setting": "male, Sprague-Dawley, rat, in vivo, iv, 1 mg/kg, 151 IV 1.0 mg/kg, SD rats, individual rats, read-out: Vss of 151", "value": 0.696, "unit": "L/kg"}, {"measurement": "clearance", "setting": "male, Sprague-Dawley, rat, in vivo, iv, 1 mg/kg, 151 IV 1.0 mg/kg, SD rats, mean, read-out: CL of 151 (converted)", "value": 14.3, "unit": "mL/min/kg"}, {"measurement": "Vd", "setting": "male, Sprague-Dawley, rat, in vivo, iv, 1 mg/kg, 151 IV 1.0 mg/kg, SD rats, mean, read-out: Vss of 151", "value": 0.736, "unit": "L/kg"}, {"measurement": "half-life", "setting": "male, Sprague-Dawley, rat, in vivo, iv, 1 mg/kg, 151 iv 1.0 mg/kg (n=2), read-out: elimination half-life (converted)", "value": 53.4, "unit": "min"}, {"measurement": "clearance", "setting": "male, Sprague-Dawley, rat, in vivo, iv, 1 mg/kg, 151 iv 1.0 mg/kg (n=2), read-out: mean clearance from rat plasma (converted)", "value": 14.3, "unit": "mL/min/kg"}, {"measurement": "Vd", "setting": "male, Sprague-Dawley, rat, in vivo, iv, 1 mg/kg, 151 iv 1.0 mg/kg (n=2), read-out: volume of distribution at steady state", "value": 0.736, "unit": "L/kg"}]}
